Patent US12661345B2, “Compositions for the treatment of hypertension” (The George Institute for Global Health, priority 2017, dated 2026)

Tested on: participants with migraine
Test: Office blood pressure in 12-week double blind randomized 3×3 factorial trial
Type: in vivo, human
Method: There was a 4 week screening period and another 4-week post study drug observational period.
There was a 4-week screening period and another 4-week post study drug observational period.
Group 2 received the low-dose BP lowering combination and simvastatin (i.e., telmisartan 20 mg+amlodipine 2.5 mg+simvastatin). Group 3 received the low-dose BP lowering combination and placebo (i.e., telmisartan 20 mg+amlodipine 2.5 mg+placebo). […] Group 9 received double placebo.
Office BP was measured following the recommendations of the Australian National Heart Foundation. Participants were rested in the seated position for 5 minutes, an appropriate cuff size was selected and 3 measurements of BP were recorded using an Omron HEM907 monitor or equivalent validated automated digital BP monitor. Principles of automated office BP measurements were applied whereby the patient was left alone during BP recording.
All analyses of study outcomes were conducted according to the principle of intention-to-treat. The analyses of continuous outcomes such SBP and LDL-cholesterol at 12 weeks was performed using ANCOVA including the treatment arm and baseline values as a covariate. Additional analyses included interim measurements in a longitudinal model including treatment arm, visit, and treatment by visit interaction as well as the baseline measurement. Within-patient correlations were modelled using generalized estimating equations. A similar approach was applied to binary endpoints with log-binomial regression used in place of linear regression. There were also pre-defined subgroup analyses, baseline BP, baseline LDL, gender and age.

[1] = Week 12, BP arm versus placebo, interval in brackets
[2] = Week 16 (after 4-week post study drug period)
[3] = Week 16, BP arm versus placebo, interval in brackets
[4] = overall line, BP arm versus placebo, interval in brackets, footnote # not given

## CC(C)NCC(O)COc1cccc2ccccc12 (centres unmarked) [Propranolol, propranolol]
Week 8
  Systolic Blood Pressure, Change from Baseline, min: −30
Week 8, BP arm versus placebo, interval in brackets
  Diastolic Blood Pressure Mean difference: −3.67 (−10.23, 2.90) mmHg
Week 8, interval in brackets
  Diastolic Blood Pressure, Change from Baseline, Mean difference: −7.67 (−12.92, −2.41)
  Systolic Blood Pressure, Change from Baseline, Mean difference: −7.30 (−17.13, 2.53)
Week 12
  Diastolic Blood Pressure, Change from Baseline, Mean (SD): 10 −10.5 (6.44)
  Diastolic Blood Pressure, Change from Baseline, Q1: −16.7
  Diastolic Blood Pressure, Change from Baseline, Q2: −9.3
  Diastolic Blood Pressure, Change from Baseline, Q3: −4.3
  Diastolic Blood Pressure, Change from Baseline, max: −3
  Diastolic Blood Pressure, Change from Baseline, min: −22
  Systolic Blood Pressure, Change from Baseline, Mean (SD): 10 −10.9 (10.07)
  Systolic Blood Pressure, Change from Baseline, Q1: −17.0
  Systolic Blood Pressure, Change from Baseline, Q2: −12.8
  Systolic Blood Pressure, Change from Baseline, Q3: −4.0
  Systolic Blood Pressure, Change from Baseline, max: 5
  Systolic Blood Pressure, Change from Baseline, min: −30
Week 12 (end of treatment)
  Diastolic Blood Pressure Mean (SD): 10 74.6 (15.07) mmHg
  Diastolic Blood Pressure Q1: 60.7 mmHg
  Diastolic Blood Pressure Q2: 70.0 mmHg
  Diastolic Blood Pressure Q3: 85.7 mmHg
  Diastolic Blood Pressure max: 97 mmHg
  Diastolic Blood Pressure min: 54 mmHg
  Systolic Blood Pressure Mean (SD): 10 119.5 (17.83) mmHg
  Systolic Blood Pressure Q2: 117.5 mmHg
  Systolic Blood Pressure Q3: 135.3 mmHg
  Systolic Blood Pressure max: 145 mmHg
  Systolic Blood Pressure min: 88 mmHg
[1]
  Diastolic Blood Pressure Mean difference: −3.50 (−14.77, 7.77) mmHg
  Systolic Blood Pressure Mean difference: −1.77 (−14.87, 11.34) mmHg
Week 12, interval in brackets
  Diastolic Blood Pressure, Change from Baseline, Mean difference: −7.50 (−13.65, −1.35)
  Systolic Blood Pressure, Change from Baseline, Mean difference: −8.40 (−16.80, −0.00)
Week 12 v/s Baseline
  Change in DBP from baseline to 12 weeks Mean (SD): 10 −10.5 (6.44) mmHg
  Change in DBP from baseline to 12 weeks Q1: −16.7 mmHg
  Change in DBP from baseline to 12 weeks Q2: −9.3 mmHg
  Change in DBP from baseline to 12 weeks Q3: −4.3 mmHg
  Change in DBP from baseline to 12 weeks max: −3 mmHg
  Change in DBP from baseline to 12 weeks min: −22 mmHg
  Change in SBP from baseline to 12 weeks Mean (SD): 10 −10.9 (10.07) mmHg
  Change in SBP from baseline to 12 weeks Q1: −17.0 mmHg
  Change in SBP from baseline to 12 weeks Q2: −12.8 mmHg
  Change in SBP from baseline to 12 weeks Q3: −4.0 mmHg
  Change in SBP from baseline to 12 weeks max: 5 mmHg
  Change in SBP from baseline to 12 weeks min: −30 mmHg
Week 16
  Diastolic Blood Pressure, Change from Baseline, Mean (SD): 9 −3.9 (4.82)
  Diastolic Blood Pressure, Change from Baseline, Q1: −7.7
  Diastolic Blood Pressure, Change from Baseline, Q2: −2.7
  Diastolic Blood Pressure, Change from Baseline, Q3: −0.7
  Diastolic Blood Pressure, Change from Baseline, max: 4
  Diastolic Blood Pressure, Change from Baseline, min: −11
  Systolic Blood Pressure, Change from Baseline, Mean (SD): 9 −2.3 (5.95)
  Systolic Blood Pressure, Change from Baseline, Q1: −6.3
  Systolic Blood Pressure, Change from Baseline, Q2: −3.3
  Systolic Blood Pressure, Change from Baseline, Q3: 2.3
  Systolic Blood Pressure, Change from Baseline, max: 6
  Systolic Blood Pressure, Change from Baseline, min: −11
[2]
  Diastolic Blood Pressure Mean (SD): 9 82.0 (11.14) mmHg
  Diastolic Blood Pressure Q1: 73.3 mmHg
  Diastolic Blood Pressure Q2: 82.3 mmHg
  Diastolic Blood Pressure Q3: 87.3 mmHg
  Diastolic Blood Pressure min: 70 mmHg
  Systolic Blood Pressure Mean (SD): 9 129.6 (15.12) mmHg
  Systolic Blood Pressure Q1: 119.7 mmHg
  Systolic Blood Pressure Q2: 129.3 mmHg
  Systolic Blood Pressure Q3: 136.7 mmHg
  Systolic Blood Pressure max: 159 mmHg
[3]
  Diastolic Blood Pressure Mean difference: 0.97 (−7.91, 9.85) mmHg
  Systolic Blood Pressure Mean difference: 8.19 (−2.91, 19.28) mmHg
Week 16, interval in brackets
  Diastolic Blood Pressure, Change from Baseline, Mean difference: −3.93 (−9.96, 2.11)
  Systolic Blood Pressure, Change from Baseline, Mean difference: 0.10 (−6.97, 7.17)
[4]
  Diastolic Blood Pressure # Mean difference: −3.57 (−11.29, 4.16) mmHg
  Systolic Blood Pressure # Mean difference: −1.68 (−12.28, 8.92) mmHg
